Values quoted from earlier work in patent US20260335282A1, “NOVEL 3-ARYLIDENE-2-INDOLINONE DERIVATIVES FOR THERAPEUTIC USE” (ISTANBUL UNIVERSITESI REKTORLUGU, priority 2022, published 2026).

Tests used:
VEGFR-2 = conditions: Wang et al. 2021; cited from earlier work
angiogenesis = conditions: transgenic zebrafish, Wang et al. 2021; cited from earlier work
HT-29 and MKN-45 cells = conditions: Wang et al. 2021; cited from earlier work
HUVEC cell line = conditions: Wang et al. 2021; cited from earlier work
[1] = test system: BL6-B16 melanoma and E0771 breast cancer cells; conditions: Morigi et al. 2019; cited from earlier work
primary tumor = conditions: combination with docetaxel, Patyna et al. 2006; cited from earlier work

## Cc1ccc(-n2cc(-c3ccc(/C=C4\C(=O)Nc5ccccc54)cc3)nn2)cc1 [III]
VEGFR-2
  inhibitory activity on VEGFR-2 vs sunitinib: greater inhibitory activity on VEGFR-2
angiogenesis
  inhibitory effect on angiogenesis: confirmed in vivo
HT-29 and MKN-45 cells
  cytotoxicity vs sunitinib: better cytotoxicity on HT-29 and MKN-45 cells
HUVEC cell line
  toxicity to HUVEC vs sunitinib: less toxic to HUVEC cell line than sunitinib

## O=C1Nc2ccccc2/C1=C/c1nc2sccn2c1-c1ccncc1 [I]
[1]
  tumor volume: reduction in tumor volume

## Cc1[nH]c(/C=C2\C(=O)Nc3ccc(F)cc32)c(C)c1C(=O)NCC(O)CN1CCOCC1 (stereo not drawn) [SU14813]
Primary tumor
  inhibition of primary tumor growth and survival: significantly improve both inhibition of primary tumor growth and survival of tumor-bearing mice
